Where two headings read alike, the source gives them in different places.

As a reminder, the Kd is the concentration at which binding is half-saturated. By inhibition is commonly meant the relative decrease from the control value, in per cent.

In one assay the test system is HeLa. The assay can be described thus: Proliferation inhibition at single concentration (CellTiter-Blue). It counts as cell-based. The conditions noted are these: 1 μM compound.
In the next assay the test system is MCF-7. The assay is described as above. The format is cell-based. The conditions noted are these: 1 μM compound.
A further assay concerns MV-4-11. The description is as above. The format is cell-based. The note with it: 1 μM compound.
In the next assay the test system is HCT116. The assay is described as above. The format is cell-based. The conditions noted are these: 1 μM compound.
In a further assay the target is FLT3 (Homo sapiens (Human), UniProt P36888). The assay can be described thus: DiscoverX Kd Elect binding. The text has this:
(§1) Although the current drugs on the market or in clinical trials are relatively successful in killing the AML leukemia cells, they currently are unable to deal with secondary mutations that occur after TKI treatment, such as FLT3 ([…]).
HCK is expressed more in human primary leukemic stem cells than in human normal hematopoietic stem cells. […] Other protein kinases such as SYK, BRAF, p38 (p38MAPK), PDGFRα/β, FGFR1, RET, FLT4, Tie2 have also been linked to leukemia. […] (Table 9). The inhibition of the Src-kinase family could be important clinically because these kinases are downstream of FLT3. In the event of FLT3 mutation, the inhibition of the Src-family kinases could still lead to proliferation inhibition.

Assay [1] relates to MV4-11. The assay can be described thus: IC50 proliferation assay (Alamar Blue, 72 h). The note with it: read-out: IC50 (proliferation inhibition) Cell line - MV4-11. The format is cell-based. The gist of the method: (§2)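 Cells seeded ~18 h before treatment with semi-serial compound dilutions made in DMSO then growth medium. After 72 h exposure, Alamar Blue added and read following 4 h further at 37 °C; IC50 for proliferation inhibition.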
A general note: The colour change of resazurin is a common sign of viable cells or microbes.

The subject of another assay is K562. Kind of assay: IC50 proliferation assay (Alamar Blue, 72 h). The format is cell-based.
A further assay concerns the target FLT3 ITD (Homo sapiens, UniProt P36888). Kind of assay: DiscoverX Kd Elect binding.
Excerpt: as §1

Another assay has as its target c-Src (Homo sapiens (Human), UniProt P12931). Kind of assay: Reaction Biology HotSpot kinase assay. It counts as biochemical. The conditions noted are these: 500 nM compound. The gist of the method:
(§3)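 Each compound was tested at 500 nM, with 33P incorporation from ATP (100 μM final, including [γ-33P]ATP) measured by P81 paper capture after a 2 h room-temperature reaction.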

The target of the next assay is FGFR1 (Homo sapiens (Human), UniProt P11362). The assay can be described thus: Reaction Biology HotSpot kinase assay. It counts as biochemical. The note with it: 500 nM compound. The gist of the method: (§4)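 Compounds were screened at one concentration, 500 nM, in a radiometric kinase reaction. After a 20-minute preincubation with enzyme and substrate in pH 7.5 HEPES buffer (1% DMSO), the mixture received 100 μM ATP containing [γ-33P]ATP and was left 2 h at room temperature.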
FGFR1, sequence (P11362 22-822): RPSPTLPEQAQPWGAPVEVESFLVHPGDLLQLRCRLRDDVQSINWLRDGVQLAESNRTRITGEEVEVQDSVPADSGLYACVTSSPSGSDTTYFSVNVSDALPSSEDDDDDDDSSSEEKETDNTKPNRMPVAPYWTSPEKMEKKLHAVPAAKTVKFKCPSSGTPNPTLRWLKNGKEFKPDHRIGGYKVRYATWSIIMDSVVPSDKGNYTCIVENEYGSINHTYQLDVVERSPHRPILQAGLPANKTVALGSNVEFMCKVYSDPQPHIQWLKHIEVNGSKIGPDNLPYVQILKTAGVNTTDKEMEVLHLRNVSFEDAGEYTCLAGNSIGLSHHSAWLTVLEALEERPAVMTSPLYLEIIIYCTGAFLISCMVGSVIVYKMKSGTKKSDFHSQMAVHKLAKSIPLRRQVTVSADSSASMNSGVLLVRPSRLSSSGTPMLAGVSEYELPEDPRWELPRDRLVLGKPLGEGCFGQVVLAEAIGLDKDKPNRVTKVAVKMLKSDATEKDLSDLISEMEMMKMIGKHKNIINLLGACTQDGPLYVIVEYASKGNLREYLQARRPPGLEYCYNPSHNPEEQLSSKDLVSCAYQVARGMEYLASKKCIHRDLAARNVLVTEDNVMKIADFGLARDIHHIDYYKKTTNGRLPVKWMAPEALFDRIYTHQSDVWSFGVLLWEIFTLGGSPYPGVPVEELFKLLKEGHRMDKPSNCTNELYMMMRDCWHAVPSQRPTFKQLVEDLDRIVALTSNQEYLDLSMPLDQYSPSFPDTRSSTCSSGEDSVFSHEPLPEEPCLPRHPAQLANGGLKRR

For a further assay, the target named is RET (Homo sapiens (Human), UniProt P07949). Kind of assay: Reaction Biology HotSpot kinase assay. The format is biochemical. The conditions noted are these: 500 nM compound. The method in brief:
as §3

Assay [2] deals with MV4-11. The assay can be described thus: IC50 determination (proliferation assay, CellTiter-Blue). It counts as cell-based. The procedure:
(§5) Cell lines were seeded into 96-well plates the afternoon prior to treatment. Approximately 18 hours later, compounds were diluted in dimethyl sulfoxide (DMSO) and added to cells. Plates were incubated for 72 hours and cells viability determined with CellTiter-Blue Cell Viability Assay (Promega, Madison, WI). Plates were read after 4 additional hours of incubation at 37° C. using plate reader (Bio-Tek, Winooski. VT). Data was analyzed and graphed using GraphPad Prism Software (Graphpad. La Jolla, CA). […]

Assay [3] concerns MOLM14. The assay is described as above. It counts as cell-based. The procedure: as §5
A further assay relates to HL60. Kind of assay: Anti-proliferative effects in leukemia panel. The format is cell-based. The note with it: Homo sapiens, HL-60.
A further assay relates to FLT3 phosphorylation. The assay can be described thus: Western blot in MV4-11. The format is cell-based, human. A general note: A western blot detects proteins with antibodies after separation by electrophoresis.
For another assay, the system named is STAT5 phosphorylation. Kind of assay: Western blot in MV4-11. It counts as cell-based, human. The procedure:
Effect of HSW630-1 on protein expression was tested in the MV4-11 leukemia cell line. Total protein extracts were prepared using RIPA buffer (SIGMA) supplemented with Complete Mini™ protease inhibitor and PHOStop™ phosphatase inhibitors (Roche). Equal amounts of proteins (up to 25 μg) were separated on 4-12% NuPAGE gels in 1×MOPS or 1×MES buffer (Invitrogen) and transferred onto PVDF membranes (Millipore). The membrane was blocked with 5% dry milk in 1×TBS/0.1% Tween 20 (TBST) for at least 1 h at room temperature and incubated with human specific primary antibodies: FLT3, Phospho-FLT3, c-Myc (Cell Signaling Technologies), KRAS (Santa Cruz), or mouse anti-β-actin (SIGMA) overnight at 4° C. The membrane was washed 3 times in TBST and incubated with a horseradish peroxidase-conjugated secondary anti-rabbit or anti-mouse antibody (Cell Signaling Technologies) for 1 h at room temperature. Blots were again washed and the signal was detected with SuperSignal West Femto Chemiluminescent Substrate (Pierce) and exposed to HyBlot CL® autoradiography film (Denville).
To determine if the phosphorylation of FLT3, SRC kinase and downstream effectors or kinases (such as STAT3 [44], STAT5 [45] and p-38 [46]) could be affected by the compounds. […] The level of SRC kinase increased over time (amount at the 48 h time point is greater than at the 6 and 24 h time points). Unfortunately the bands for the phosphorylated SRC kinase are blurred despite repeated attempts to get clearer bands. […] From the above Western analyses, it is confirmed that the proliferation inhibition of MV4-11 is due to the inhibition of FLT3 signaling axis.

For assay [4], the system named is MV4-11. The assay can be described thus: Anti-proliferative effects in leukemia panel. It counts as cell-based.
The subject of assay [5] is MV4-11. Kind of assay: Activity against AML cell line MV4-11 (CellTiter-Blue, 72 h). The format is cell-based. The note with it: Homo sapiens, MV4-11, 72 h; read-out: IC50 against MV4-11/uM. The method in brief: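 Suspension cells seeded at 4000 per well, left overnight, then exposed to compound from 10 nM to 100 μM for 72 h. Viability by CellTiter-Blue resazurin fluorescence after 4 h (Ex 560, Em 590); IC50 from concentration-response.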

For a further assay, the system named is THP-1. Kind of assay: Anti-proliferative effects in leukemia panel. The format is cell-based. The note with it: Homo sapiens.
The test system of a further assay is K-562. Kind of assay: Anti-proliferative effects in leukemia panel. The format is cell-based. The note with it: Homo sapiens, K562.
The subject of assay [6] is MOLM14. Kind of assay: Anti-proliferative effects in leukemia panel. The format is cell-based.
Another assay deals with c-kit (Homo sapiens (Human), UniProt P10721). Kind of assay: Reaction Biology HotSpot kinase assay. The note with it: 500 nM compound, 100 μM radiolabeled ATP. It counts as biochemical. The gist of the method: as §4
c-kit, sequence (P10721 26-976): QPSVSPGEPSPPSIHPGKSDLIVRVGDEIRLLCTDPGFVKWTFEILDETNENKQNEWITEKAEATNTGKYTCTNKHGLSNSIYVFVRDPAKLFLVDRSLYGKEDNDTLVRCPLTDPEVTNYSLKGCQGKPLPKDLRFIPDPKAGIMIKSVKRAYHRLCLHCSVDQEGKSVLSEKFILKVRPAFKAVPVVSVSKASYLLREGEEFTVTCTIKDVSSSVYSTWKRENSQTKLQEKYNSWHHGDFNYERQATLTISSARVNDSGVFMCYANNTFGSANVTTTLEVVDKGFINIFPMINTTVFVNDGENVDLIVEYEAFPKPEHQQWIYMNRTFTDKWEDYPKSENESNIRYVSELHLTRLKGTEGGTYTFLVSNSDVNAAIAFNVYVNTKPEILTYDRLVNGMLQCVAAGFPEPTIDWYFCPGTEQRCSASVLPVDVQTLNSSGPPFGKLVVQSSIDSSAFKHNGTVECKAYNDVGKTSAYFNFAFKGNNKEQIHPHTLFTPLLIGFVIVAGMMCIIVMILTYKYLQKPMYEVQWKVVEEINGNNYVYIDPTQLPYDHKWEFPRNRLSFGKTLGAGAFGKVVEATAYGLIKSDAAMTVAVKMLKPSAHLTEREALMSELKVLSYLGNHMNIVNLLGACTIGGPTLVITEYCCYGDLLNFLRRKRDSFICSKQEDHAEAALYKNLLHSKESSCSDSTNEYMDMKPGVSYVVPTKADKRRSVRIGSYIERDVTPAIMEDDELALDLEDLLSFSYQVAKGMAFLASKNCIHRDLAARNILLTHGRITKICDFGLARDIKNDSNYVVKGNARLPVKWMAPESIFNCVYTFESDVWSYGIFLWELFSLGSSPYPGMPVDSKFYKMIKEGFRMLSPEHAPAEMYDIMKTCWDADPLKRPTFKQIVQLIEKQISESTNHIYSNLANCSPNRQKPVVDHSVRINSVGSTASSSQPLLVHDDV
The next assay has as its target TRKC (Homo sapiens (Human), UniProt Q16288). Kind of assay: Reaction Biology HotSpot kinase assay. The note with it: 500 nM compound, 100 μM radiolabeled ATP. It counts as biochemical. The gist of the method: as §4
Another assay has as its system NCI H1703 (NSCLC). Kind of assay: Activity against lung cancer cell line. The format is cell-based.
For the next assay, the target named is FLT3 (ITD, F691L) (Homo sapiens, UniProt P36888, F691L/ITD). Kind of assay: DiscoverX Kd Elect binding. The conditions noted are these: read-out: Kd FLT3 (ITD, F691L).
FLT3 (ITD, F691L), sequence (P36888 whole entry, looked up, stated change not applied): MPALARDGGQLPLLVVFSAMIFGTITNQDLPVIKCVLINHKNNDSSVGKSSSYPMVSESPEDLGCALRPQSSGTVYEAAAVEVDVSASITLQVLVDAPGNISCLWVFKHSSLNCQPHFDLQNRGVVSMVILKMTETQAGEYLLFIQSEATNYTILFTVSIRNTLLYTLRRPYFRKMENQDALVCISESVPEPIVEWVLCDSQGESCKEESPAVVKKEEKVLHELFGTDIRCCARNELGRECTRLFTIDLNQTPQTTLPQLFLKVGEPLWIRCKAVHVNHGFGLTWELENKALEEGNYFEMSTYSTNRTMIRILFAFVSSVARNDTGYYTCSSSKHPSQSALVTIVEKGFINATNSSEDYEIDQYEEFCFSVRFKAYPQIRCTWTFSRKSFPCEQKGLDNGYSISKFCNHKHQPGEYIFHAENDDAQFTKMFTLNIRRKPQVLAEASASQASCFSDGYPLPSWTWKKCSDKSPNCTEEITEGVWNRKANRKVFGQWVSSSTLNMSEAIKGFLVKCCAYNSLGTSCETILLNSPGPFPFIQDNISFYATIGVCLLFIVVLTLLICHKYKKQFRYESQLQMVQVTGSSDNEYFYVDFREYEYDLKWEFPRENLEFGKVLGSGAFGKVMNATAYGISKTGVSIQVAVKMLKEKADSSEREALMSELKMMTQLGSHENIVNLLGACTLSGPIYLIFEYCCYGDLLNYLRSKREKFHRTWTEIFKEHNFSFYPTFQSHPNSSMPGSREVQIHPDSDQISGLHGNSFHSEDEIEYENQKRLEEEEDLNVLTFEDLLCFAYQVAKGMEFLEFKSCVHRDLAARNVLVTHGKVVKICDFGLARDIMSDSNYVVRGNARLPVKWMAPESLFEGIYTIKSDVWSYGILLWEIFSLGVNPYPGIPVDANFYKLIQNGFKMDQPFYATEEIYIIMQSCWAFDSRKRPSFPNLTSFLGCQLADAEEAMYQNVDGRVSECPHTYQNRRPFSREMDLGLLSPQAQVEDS
Assay [7] relates to MV4-11. The assay can be described thus: In vivo efficacy, NSG mice injected with MV4-11. The conditions noted are these: 25 mg/kg, three times per week, NSG mice with MV4-11. As to the method: Method: Six week old female NSG mice were injected intravenously with 1×10^6 logarithmically growing MV4-11 cells expressing luciferase (MV4-11). Luciferase expressing leukemia cells were imaged using the IVIS Xenogen system (Perkin Elmer, Waltham MA). On day of imaging, mice are injected IP with 150 mg/kg luciferin (Perkin Elmer, Waltham, MA), anaesthetized and then placed in imaging chamber. Maximal luminescence is recorded and then averaged among each treatment group. Ten days post cell injection, mice were imaged and then sorted into groups so that leukemic burden was similar and dosing started. Mice were dosed either with vehicle (10% DMSO/10% Tween 20/80% saline) or 25 mg/kg of compounds three times per week for the duration of the experiment. Mice were weighed and observed five days per week and imaged once per week.

For a further assay, the system named is MiaPaca-2. The assay can be described thus: IC50 proliferation assay (Alamar Blue, 72 h). It counts as cell-based. The conditions noted are these: Homo sapiens, MIA PaCa-2; read-out: IC50 MiaPaca-2 (pancreatic cell line). The method in brief: as §2
In a further assay the test system is HLY-1. The assay can be described thus: IC50 proliferation assay (Alamar Blue, 72 h). It counts as cell-based. The conditions noted are these: read-out: IC50 HLY-1 (lymphoma cell line). The method in brief:
as §2

Another assay concerns the target BTK (Homo sapiens (Human), UniProt Q06187). Kind of assay: Reaction Biology HotSpot kinase assay. It counts as biochemical. The note with it: 500 nM compound; read-out: Percentage kinase inhibition BTK. The gist of the method:
as §3

FLT3 ITD, sequence (P36888 whole entry, looked up, change not shown): as the sequence (P36888 whole entry, looked up, stated change not applied) above
c-Src, sequence (P12931 whole entry, looked up): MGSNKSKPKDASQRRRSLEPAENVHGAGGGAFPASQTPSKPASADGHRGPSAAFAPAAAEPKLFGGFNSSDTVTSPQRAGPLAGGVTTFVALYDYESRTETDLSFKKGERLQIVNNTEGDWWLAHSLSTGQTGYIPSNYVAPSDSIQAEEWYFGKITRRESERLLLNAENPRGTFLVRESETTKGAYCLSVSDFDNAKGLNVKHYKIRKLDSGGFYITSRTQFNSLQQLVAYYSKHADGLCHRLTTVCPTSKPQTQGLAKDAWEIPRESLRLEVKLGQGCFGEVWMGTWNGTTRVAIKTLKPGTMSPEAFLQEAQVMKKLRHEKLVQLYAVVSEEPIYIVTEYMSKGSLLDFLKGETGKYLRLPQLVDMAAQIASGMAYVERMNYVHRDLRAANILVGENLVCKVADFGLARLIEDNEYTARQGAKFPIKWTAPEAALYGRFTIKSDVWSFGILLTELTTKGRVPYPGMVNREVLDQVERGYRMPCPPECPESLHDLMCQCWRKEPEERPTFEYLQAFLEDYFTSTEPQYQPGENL
FLT3, sequence (P36888 27-993): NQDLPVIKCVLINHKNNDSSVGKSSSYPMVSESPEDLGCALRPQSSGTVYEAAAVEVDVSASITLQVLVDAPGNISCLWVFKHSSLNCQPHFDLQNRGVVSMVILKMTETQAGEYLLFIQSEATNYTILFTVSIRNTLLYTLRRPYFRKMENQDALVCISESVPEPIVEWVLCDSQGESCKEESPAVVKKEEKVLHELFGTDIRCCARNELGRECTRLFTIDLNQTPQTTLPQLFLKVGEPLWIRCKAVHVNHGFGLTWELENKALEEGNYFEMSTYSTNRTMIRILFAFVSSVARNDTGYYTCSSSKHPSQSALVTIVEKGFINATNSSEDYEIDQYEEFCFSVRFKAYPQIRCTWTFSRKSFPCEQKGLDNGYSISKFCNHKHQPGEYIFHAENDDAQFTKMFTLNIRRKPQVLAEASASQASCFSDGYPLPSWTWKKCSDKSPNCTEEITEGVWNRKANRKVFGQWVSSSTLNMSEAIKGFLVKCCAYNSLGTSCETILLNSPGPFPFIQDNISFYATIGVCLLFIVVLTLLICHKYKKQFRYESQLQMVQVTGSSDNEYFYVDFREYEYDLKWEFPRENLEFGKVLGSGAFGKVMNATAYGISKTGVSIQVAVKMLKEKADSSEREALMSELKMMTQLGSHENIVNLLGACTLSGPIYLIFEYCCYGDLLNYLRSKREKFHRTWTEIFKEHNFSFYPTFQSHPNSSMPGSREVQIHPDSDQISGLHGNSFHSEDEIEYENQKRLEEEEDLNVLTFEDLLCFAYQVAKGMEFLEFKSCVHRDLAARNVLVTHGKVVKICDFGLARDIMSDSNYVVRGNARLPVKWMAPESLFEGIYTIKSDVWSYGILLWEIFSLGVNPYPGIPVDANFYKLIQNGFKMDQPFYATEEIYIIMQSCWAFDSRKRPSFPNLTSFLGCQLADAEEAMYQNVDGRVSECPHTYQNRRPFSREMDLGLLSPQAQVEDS
BTK, sequence (Q06187 whole entry): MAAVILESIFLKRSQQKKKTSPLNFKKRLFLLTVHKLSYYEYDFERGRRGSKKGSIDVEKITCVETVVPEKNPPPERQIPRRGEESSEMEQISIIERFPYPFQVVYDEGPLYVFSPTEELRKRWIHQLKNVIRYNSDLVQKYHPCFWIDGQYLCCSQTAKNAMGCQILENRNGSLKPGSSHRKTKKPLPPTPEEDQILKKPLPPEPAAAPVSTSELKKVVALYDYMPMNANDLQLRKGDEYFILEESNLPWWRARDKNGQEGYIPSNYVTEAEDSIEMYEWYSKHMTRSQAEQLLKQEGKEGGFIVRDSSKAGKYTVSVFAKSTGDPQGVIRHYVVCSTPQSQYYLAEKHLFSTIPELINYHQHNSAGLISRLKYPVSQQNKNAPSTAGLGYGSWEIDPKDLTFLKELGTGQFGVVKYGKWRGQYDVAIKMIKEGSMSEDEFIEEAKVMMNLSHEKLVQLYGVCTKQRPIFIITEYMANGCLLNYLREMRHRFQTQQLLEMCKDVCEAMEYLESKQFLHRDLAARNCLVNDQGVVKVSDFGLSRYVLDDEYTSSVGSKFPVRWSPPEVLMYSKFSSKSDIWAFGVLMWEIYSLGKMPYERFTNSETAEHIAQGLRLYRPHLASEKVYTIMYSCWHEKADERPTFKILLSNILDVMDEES
Description for FLT3 phosphorylation: Total protein extracts were prepared using RIPA buffer (SIGMA) supplemented with Complete Mini™ protease inhibitor and PHOStop™ phosphatase inhibitors (Roche). […] The membrane was blocked with 5% dry milk in 1×TBS/0.1% Tween 20 (TBST) for at least 1 h at room temperature and incubated with human specific primary antibodies: FLT3, Phospho-FLT3, c-Myc (Cell Signaling Technologies), KRAS (Santa Cruz), or mouse anti-β-actin (SIGMA) overnight at 4° C. The membrane was washed 3 times in TBST and incubated with a horseradish peroxidase-conjugated secondary anti-rabbit or anti-mouse antibody (Cell Signaling Technologies) for 1 h at room temperature. Blots were again washed and the signal was detected with SuperSignal West Femto Chemiluminescent Substrate (Pierce) and exposed to HyBlot CL® autoradiography film (Denville).

For `Cc1ccc(C(=O)NCC(O)CN(C)C)cc1C#Cc1c(N)ncc2ccc(Cl)cc12` (stereo not drawn) [HSN178], the “Percent inhibition of proliferation HeLa” value in the assay with HeLa came out at 100%. Moreover, in the assay on MCF-7, the “Percent inhibition of proliferation MCF-7” value came to 100%. The “Percent inhibition of proliferation MV-4-11” value in the assay with MV-4-11 was 98%. Also, in the assay on HCT116, the “Percent inhibition of proliferation HCT116” value is on record as 97%. Further, the Kd came to 53 nM on FLT3 and 450 nM at FLT3 ITD. Moreover, the IC50 in the assay with MV4-11 [1] (72 h) came to 171 nM; in the assay on K562 (72 h, read-out: IC50 (proliferation inhibition) Cell line - K562), 1440 nM; with K562 (Table 18, read-out: Inhibition of proliferation of K562 cell lines (CML)), 1443 ± 0.21 nM; in the assay on MV4-11 [2], 144 ± 2.6 nM; in the assay on MOLM14 [3] it was 187 ± 5.5 nM. The “Percentage kinase inhibition c-Src” value on c-Src worked out at 1%. Besides, on FGFR1, the “Percentage kinase inhibition FGFR1” value came out at 3%. The “Percentage kinase inhibition RET” value on RET is recorded as 0%. In addition, in the assay on MV4-11 [2], the “proliferation inhibition in words, MV4-11 / AML” value is “only moderate inhibitors”.

Regarding `Nc1ncc2ccc(Cl)cc2c1C#Cc1ccc(C2=NCCN2)cc1` [HSM1651, 6-chloro-4-((4-(4,5-dihydro-1H-imidazol-2-yl)phenyl)ethynyl)isoquinolin-3-amine], the IC50 in the assay on HL60 is 3.05 µM; with MV4-11 [4] (Homo sapiens, MV4-11, read-out: Anti-proliferative effects in leukemia panel (μM) MV4-11), 0.05 ± 0.01 µM; with MV4-11 [5], 0.008 µM; with THP-1, 1.85 µM; in the assay with K-562, 1.39 µM; in the assay with MOLM14 [6] (Homo sapiens, MOLM-14), 0.11 µM. Also, the “FLT3 phosphorylation (Western)” value with FLT3 phosphorylation was “reduced”. Further, the “STAT5 phosphorylation (Western)” value in the assay with STAT5 phosphorylation was “reduced”. Besides, in the assay on MV4-11 [4], the “anti-proliferative activity in words, MV4-11 / AML cell lines” value is on record as “good inhibitor”. Further, the “anti-proliferative activity in words, MOLM-14” value in the assay with MOLM14 [6] is “good inhibitor”. For the same compound, the figures for the inhibition at 0.5 µM against c-kit and against TRKC were 83% and 64%, respectively.

As to `Cc1ncc(C(=O)Nc2ccc(CN3CCN(C)CC3)c(C(F)(F)F)c2)cc1C#Cc1c(N)ncc2ccc(F)cc12` [HSN431], the IC50 in the assay with NCI H1703 (NSCLC) is 247 nM; with MV4-11 [2], under 1 nM. For the same compound, the Kd turned out to be 57 nM at FLT3 (ITD, F691L) and 4.8 nM at FLT3 ITD. The “in-vivo efficacy (survival)” value with MV4-11 [7] is reported as “efficacious”.

In the case of `CC1(C)CNC(c2ccc(C#Cc3cc(N)nc4ccccc34)cc2F)=N1` [HSM1856, 4-((4-(4,4-dimethyl-4,5-dihydro-1H-imidazol-2-yl)-3-fluorophenyl)ethynyl)quinolin-2-amine], the IC50 in the assay with MiaPaca-2 was found to be 400 nM; with MV4-11 [1] (Homo sapiens, MV4-11, 72 h) it was 25 nM; in the assay with HLY-1, 80 nM. Besides, the inhibition at 0.5 µM at BTK came out at 70%.
